US20060135773A1, “Trisubstituted nitrogen modulators of tyrosine phosphatases” (priority 2004, published 2006)

target: T1, PTP-1B (Homo sapiens, UniProt P18031); assay: pNPP tyrosine phosphatase inhibition assay, PTP-1B; type: biochemical; conditions: pNPP assay, PTP-1B; read-out: Activity Class (IC50 ranges)
T1 construct: PTP-1B (purified, 1 mg/mL) as a 1:250 dilution
T1 sequence (P18031 1-321 limits assumed): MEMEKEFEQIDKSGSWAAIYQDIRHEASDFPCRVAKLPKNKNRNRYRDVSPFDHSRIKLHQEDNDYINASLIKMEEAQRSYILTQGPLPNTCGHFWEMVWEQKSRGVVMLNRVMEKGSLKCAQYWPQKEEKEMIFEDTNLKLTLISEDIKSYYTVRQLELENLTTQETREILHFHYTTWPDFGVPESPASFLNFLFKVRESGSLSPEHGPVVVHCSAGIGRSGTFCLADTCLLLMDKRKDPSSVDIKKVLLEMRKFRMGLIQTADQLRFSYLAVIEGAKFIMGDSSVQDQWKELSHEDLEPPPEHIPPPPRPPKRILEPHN
Method: The compounds provided herein are evaluated for biological activity as inhibitors of PTP-1B using, for example, a pNPP assay can be used to screen compounds for tyrosine phosphatase inhibitory activity as described in the Examples.
A 5× stock of pNPP (p-nitrophenol phosphate) substrate is prepared as 50 mM pNPP in assay buffer. Various tyrosine phosphatase solutions can be prepared as follows: • PTP-1B (purified, 1 mg/mL) as a 1:250 dilution (to a final concentration of 4:g/mL); • TC-PTP (NEB, 1000 units in 100:L) as a 1:50 dilution (to a final concentration of 2U/10:L (4:g/mL)); • CD45 (Calbiochem, 20:g, 400 units in 100:L) as a 1:50 dilution (to a final concentration of 0.8U/10:L (4:g/mL)); • LAR (NEB, 1000 units in 200:L) as a 1:75 dilution (to a final concentration of 0.7U/10:L (4:g/mL)); and • PTP-β (UBI, #14-350, 10,000 units, 40:g/571:L) as a 1:17.5 dilution (to a final concentration of 10U/10:L (4:g/mL));
The compound to be tested is prepared as 1:16.7 and 1:50 dilutions from stock in a total volume of […] DMSO to give final concentrations of 626 and 200:M. The reaction mixtures are prepared in a 96-well microtiter plate (on ice) as 55:L assay buffer, 5:L of the diluted compound (to a final concentration of 31.3 and 10:M), 20:L of the pNPP substrate solution (to a final concentration of 10 mM) and 20:L PTPase in assay buffer. The reactants are mixed well, the plate placed in a water bath at 30° C. and incubated for 10 minutes. The reaction is then terminated by adding 100:L of 2M K2CO3 per well, and the absorbance is measured at 405 nm by conventional means.
Unless otherwise indicated, this assay was used to determine activity for the selected compounds whose activity is provided in Table 1.

| Compound | IC50 [nM] |
| --- | --- |
| COc1ccccc1S(=O)(=O)N(Cc1ccc(C(F)(F)P(=O)(O)O)c(Cl)c1)Cc1ccccc1-c1cccc(C(N)=O)c1 [Compound 186, [(4-{[(3′-Carbamoyl-biphenyl-2-ylmethyl)-(2-methoxy-benzenesulfonyl)-amino]-methyl}-2-chloro-phenyl)-difluoro-methyl]-phosphonic acid] | 100 to 249 |
| O=P(O)(O)C(F)(F)c1ccc(CN(Cc2ccc(Cl)c(Cl)c2)S(=O)(=O)c2ccccc2OC(F)(F)F)cc1Br [Compound 98, [(2-Bromo-4-{[(3,4-dichloro-benzyl)-(2-trifluoromethoxy-benzenesulfonyl)-amino]-methyl}-phenyl)-difluoro-methyl]-phosphonic acid] | 250 to 499 |
| COc1ccccc1S(=O)(=O)N(Cc1ccc(Cl)c(Cl)c1)Cc1ccc(C(F)(F)P(=O)(O)O)c(Br)c1 [Compound 101, [(2-Bromo-4-{[(3,4-dichloro-benzyl)-(2-methoxy-benzenesulfonyl)-amino]-methyl}-phenyl)-difluoro-methyl]-phosphonic acid] | 100 to 249 |
| N#Cc1cccc(-c2ccc(CN(Cc3ccc(C(F)(F)P(=O)(O)O)c(Cl)c3)S(=O)(=O)c3ccccc3Cl)cc2)c1 [Compound 163, [(2-Chloro-4-{[(2-chloro-benzenesulfonyl)-(3′-cyano-biphenyl-4-ylmethyl)-amino]-methyl}-phenyl)-difluoro-methyl]-phosphonic acid] | 100 to 249 |
| COc1ccccc1S(=O)(=O)N(Cc1ccc(-c2cccc(C(=O)O)c2)cc1)Cc1ccc(C(F)(F)P(=O)(O)O)c(Cl)c1 [Compound 149, 4′-{[[3-Chloro-4-(difluoro-phosphono-methyl)-benzyl]-(2-methoxy-benzenesulfonyl)-amino]-methyl}-biphenyl-3-carboxylic acid] | < 99 |
| 5-{4-[({[4-(difluorophosphonomethyl)phenyl]methyl}[(2-methoxyphenyl)sulfonyl]amino)methyl]phenyl}-2-hydroxybenzoic acid [Compound 210] | 250 to 499 |
| COc1ccccc1S(=O)(=O)N(Cc1ccc(C(F)(F)P(=O)(O)O)c(Cl)c1)Cc1ccccc1OCCCC(C)C [Compound 215, {[2-Chloro-4-({(2-methoxy-benzenesulfonyl)-[2-(4-methyl-pentyloxy)-benzyl]-amino}-methyl)-phenyl]-difluoro-methyl}-phosphonic acid] | 250 to 499 |
| COc1ccccc1S(=O)(=O)N(Cc1ccc(-c2ccc(O)c(C(=O)O)c2)cc1)Cc1ccc(C(F)(F)P(=O)(O)O)c(Cl)c1 [Compound 156, 4′-{[[3-Chloro-4-(difluoro-phosphono-methyl)-benzyl]-(2-methoxy-benzenesulfonyl)-amino]-methyl}-4-hydroxy-biphenyl-3-carboxylic acid] | < 99 |
| COc1ccccc1S(=O)(=O)N(Cc1ccc(C#N)cc1)Cc1ccc(NC(=O)C(=O)O)cc1 [Compound 129, N-(4-(N-oxalylamino]benzyl)-N-(4-cyanobenzyl)-(2-methoxy)benzenesulfonamide] | > 25000 |
| COc1ccccc1S(=O)(=O)N(Cc1ccc(-c2ccc(CC#N)cc2)cc1)Cc1ccc(C(F)(F)P(=O)(O)O)c(Cl)c1 [Compound 152, [(2-Chloro-4-{[(4′-cyanomethyl-biphenyl-4-ylmethyl)-(2-methoxy-benzenesulfonyl)-amino]-methyl}-phenyl)-difluoro-methyl]-phosphonic acid] | 100 to 249 |
| O=P(O)(O)C(F)(F)c1ccc(CN(Cc2ccc(C(F)(F)P(=O)(O)O)cc2)S(=O)(=O)c2ccccc2Br)cc1 [Compound 84, {[4-({(2-Bromo-benzenesulfonyl)-[4-(difluoro-phosphono-methyl)-benzyl]-amino}-methyl)-phenyl]-difluoro-methyl}-phosphonic acid] | 250 to 499 |
| COc1ccc(S(=O)(=O)N(Cc2ccc(C(=O)C(=O)O)cc2)Cc2ccc(S(C)(=O)=O)cc2)c(OC)c1 [Compound 111, (4-{[(2,4-Dimethoxy-benzenesulfonyl)-(4-methanesulfonyl-benzyl)-amino]-methyl}-phenyl)-oxo-acetic acid] | > 25000 |
| Methyl 3-{4-[({[4-(difluorophosphonomethyl)-3-chlorophenyl]methyl}[(2-methoxyphenyl)sulfonyl]amino)methyl]phenyl}-5-bromobenzoate [Compound 194] | 250 to 499 |
| [(2-Chloro-4-{[(4′-cyano-biphenyl-4-ylmethyl)-(2-methoxy-benzenesulfonyl)-amino]-methyl}-phenyl)-difluoro-methyl]-phosphonic acid [Compound 157] | 100 to 249 |
| COc1ccccc1S(=O)(=O)N(Cc1ccc(C#N)cc1)Cc1ccc(C=CC(=O)O)cc1 [Compound 124, 3-{4-[N-(4-cyanobenzyl)-N-(2-methoxy-benzenesulfonyl)aminomethyl]-phenyl}-acrylic acid] | > 25000 |
| O=P(O)(O)C(F)(F)c1ccc(CN(Cc2ccc(C(F)(F)P(=O)(O)O)cc2)S(=O)(=O)c2cccc3ccccc23)cc1 [Compound 67, [(4-{[[4-(Difluoro-phosphono-methyl)-benzyl]-(naphthalene-1-sulfonyl)-amino]-methyl}-phenyl)-difluoro-methyl]-phosphonic acid] | 2500 to 25000 |
| O=C(O)c1ccc(CN(Cc2ccc(C(=O)O)cc2Br)S(=O)(=O)c2ccccc2)cc1 [Compound 80, 4-([Benzenesulfonyl-(2-bromo-4-carboxybenzyl)-amino]-methyl)-benzoic acid] | > 25000 |
| N#Cc1cccc(-c2ccc(CN(Cc3ccc(C(F)(F)P(=O)(O)O)c(Cl)c3)S(=O)(=O)c3ccc(F)cc3Cl)cc2)c1 [Compound 162, [(2-Chloro-4-{[(2-chloro-4-fluoro-benzenesulfonyl)-(3′-cyano-biphenyl-4-ylmethyl)-amino]-methyl}-phenyl)-difluoro-methyl]-phosphonic acid] | 100 to 249 |
| COc1ccccc1S(=O)(=O)N(Cc1ccc(-c2cccc(C#N)c2)cc1)Cc1ccc(C(F)(F)P(=O)(O)O)c(Cl)c1 [Compound 46, [(2-Chloro-4-{[(3′-cyano-biphenyl-4-ylmethyl)-(2-methoxy-benzenesulfonyl)-amino]-methyl}-phenyl)-difluoro-methyl]-phosphonic acid] | 100 to 249 |
| 2-(3-{4-[({[4-(difluorophosphonomethyl)-3-chlorophenyl]methyl}[(2-methoxyphenyl)sulfonyl]amino)methyl]phenyl}phenyl)acetic acid [Compound 193] | < 99 |
| COC(=O)c1cccc(-c2ccc(CCN(Cc3ccc(C(F)(F)P(=O)(O)O)c(Cl)c3)S(=O)(=O)c3ccccc3OC)cc2)c1 [Compound 182, 4′-{2-[[3-Chloro-4-(difluoro-phosphono-methyl)-benzyl]-(2-methoxy-benzenesulfonyl)-amino]-ethyl}-biphenyl-3-carboxylic acid methyl ester] | 250 to 499 |
| 3-{4-[({[4-(difluorophosphonomethyl)-3-chlorophenyl]methyl}[(2-methoxyphenyl)sulfonyl]amino)methyl]phenyl}-5-bromobenzoic acid [Compound 195] | < 99 |
| COc1ccccc1S(=O)(=O)N(Cc1ccc(OCc2nnn[nH]2)cc1)Cc1ccc(OCc2nnn[nH]2)cc1 [Compound 138, 2-Methoxy-N,N-bis-[4-(1H-tetrazol-5-ylmethoxy)-benzyl]-benzenesulfonamide] | > 25000 |
| {[4-(difluorophosphonomethyl)-3-chlorophenyl]methyl}[(2-methoxyphenyl)sulfonyl](3-piperidylmethyl)amine [Compound 209] | 2500 to 25000 |
| COC(=O)c1ccccc1S(=O)(=O)N(Cc1ccc(C(F)(F)P(=O)(O)O)cc1)Cc1ccc(C(F)(F)P(=O)(O)O)cc1 [Compound 92, 2-{Bis-[4-(difluoro-phosphono-methyl)-benzyl]-sulfamoyl}-benzoic acid methyl ester] | 2500 to 25000 |
| 3-[(4-{[(2-Methoxy-benzenesulfonyl)-naphthalen-1-ylmethyl-amino]-methyl}-phenyl)-oxalyl-amino]-butyric acid [Compound 225] | > 25000 |
| COc1ccc(S(=O)(=O)N(Cc2ccc(C(F)(F)P(=O)(O)O)cc2)Cc2ccc(C(F)(F)P(=O)(O)O)cc2)cc1 [Compound 89, [(4-{[[4-(Difluoro-phosphono-methyl)-benzyl]-(4-methoxy-benzenesulfonyl)-amino]-methyl}-phenyl)-difluoro-methyl]-phosphonic acid] | 250 to 499 |
